Tests used:
[1] = molecular target: T1, GSPT1-HiBiT protein in GSPT1-HiBiT HEK293 cells (Homo sapiens, UniProt P15170+Q96SW2); test: GSPT1 degradation assay using HiBiT system (Nano-Glo HiBiT lytic assay); assay type: cell-based; conditions: 6 hours treatment; for DC50: read-out: HiBiT lytic assay Geomean absolute DC50
T1 construct: endogenous in cells; host or cells: HEK293 (CRISPR/Cas9 knock-in of HiBiT at the GSPT1 locus)
Source text: The effect of selected compounds of the invention on GSPT1 protein levels was investigated, using the GSPT1-HiBiT HEK293 cell line and the Nano-Glo HiBiT degradation assay protocol below.
GSPT1-HiBiT HEK293 cells were generated in-house using the HEK293 parental cells (ATCC, cat. no 70016364) and the CRISPR/Cas9 system. HEK293 cells were transformed with pSpCas9-BB-2A-Puro v2.0 plasmid carrying gRNA targeting the C-terminus of GSPT1 and ssODN template containing the HiBiT tag sequence with flanking homology sequences. Neon Transfection System (Thermo Fisher Scientific) was used for electroporation. HEK293 GSPT1-HiBiT cells were cultured with DMEM Glutamax (Gibco) supplemented with 10% heat inactivated FBS (Gibco). After transfection the culture medium was changed to DMEM Glutamax with 10% heat-inactivated FBS and 1% Penicillin-Streptomycin (Biowest) supplemented with Puromycin (2 μg/ml; Invivogen) for clonal selection. In order to isolate single cell clones for further validation and analysis, limiting dilution cloning in 96-well plates was performed. When the single clones reached confluency, HiBiT Lytic Assay (Promega) was performed in order to identify HiBiT positive clones. The clone selected for further studies was verified and validated using genotyping and HiBiT Blotting (Promega).
Cells were maintained in DMEM Glutamax medium, supplemented with 1% penicillin/streptomycin and 10% Fetal Bovine Serum (FBS) at 37° C., 5% CO2. Compounds were stored frozen as 20 mM DMSO stocks.
For the Nano-Glo HiBiT assay, cells were seeded onto 384-well white solid bottom plate at 2×10^3 cells/well in 40 μL using the Agilent BioTek MultiFlo FX Multimode Dispenser and incubated overnight. Following overnight incubation (37° C., 5% CO2) cells were treated with the test compounds and vehicle only (DMSO) control using the Echo 555 Liquid Handler. Twelve data-point compound titration curve with concentrations ranging from 10 μM to 0.03 nM was used. Final DMSO concentration was kept constant at 0.25% v/v across the assay plate. After 6 hours of incubation (37° C., 5% CO2), plates were removed from the incubator and let to equilibrate to RT. Luminescent signal detection was conducted using the Nano-Glo HiBiT Lytic Detection System (Promega, cat. nr N3050). Nano-Glo HiBiT Lytic Reagent was prepared freshly by diluting the LgBiT Protein (1:100 vol/vol) and the Nano-Glo HiBiT Lytic Substrate (1:50 vol/vol) in the relevant volume of the Nano-Glo HiBiT Lytic Buffer. 40 μL of the HiBiT Lytic Reagent was added per well, plates were shaken to facilitate lysis (350 rpm, 5 min, RT) and incubated in the dark for the following 10 min. Luminescence was read using the PHERAstar multimode plate reader (BMG LABTECH). The raw data (the relative luminescence unit values, RLU) were uploaded under the relevant protocol and analysed in CDDVault data management platform. Luminescence (RLU) values were normalized to the controls, and reported absolute DC50 values and Dmax values were calculated in CDDVault using non-linear regression and appropriate equations.

[2] = molecular target: [GSPT1]-[compound of formula (I)]-[CRBN/DDB1] complex (Homo sapiens, UniProt P15170+Q96SW2); test: HTRF ternary complex assay (GSPT1); assay type: binding; conditions: read-out: HTRF ternary complex Average pEC50 by molecule (converted)
How it was run: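 Compounds in dose-response were incubated 180 min at 25 °C with 48 nM GSPT1 and 52.8 nM 6×His-CRBN/DDB1, plus Streptavidin-Eu cryptate and anti-6×His-d2, in buffer with 1 mM DTT and 0.5% DMSO. TR-FRET (665/620) was normalized to DMSO background and fitted with a Hill slope model for EC50/pEC50.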

[3] = molecular target: [CK1α]-[compound]-[CRBN/DDB1] ternary complex (Homo sapiens, UniProt P48729+Q96SW2); test: AlphaLISA assay for off-target recruitment detection, CK1α; assay type: binding; conditions: 1 μM compound; normalized to FPFT-2216; read-out: Normalized ternary complex response, CK1α
How it was run: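 Neo-substrate with 40 μg/ml donor beads and 200 nM 6×His-CRBN/DDB1 with 40 μg/ml anti-His acceptor beads were each prepared in PBS pH 7.4 with Tween-20 and 1 mM DTT, preincubated 30 min at RT, then mixed. Compounds at 2% DMSO were incubated 30 min at 25 °C, read at 680/615 nm, and normalised between DMSO background and reference glue maximum.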

Chain of [CK1α]-[compound]-[CRBN/DDB1] ternary complex (P48729 whole entry): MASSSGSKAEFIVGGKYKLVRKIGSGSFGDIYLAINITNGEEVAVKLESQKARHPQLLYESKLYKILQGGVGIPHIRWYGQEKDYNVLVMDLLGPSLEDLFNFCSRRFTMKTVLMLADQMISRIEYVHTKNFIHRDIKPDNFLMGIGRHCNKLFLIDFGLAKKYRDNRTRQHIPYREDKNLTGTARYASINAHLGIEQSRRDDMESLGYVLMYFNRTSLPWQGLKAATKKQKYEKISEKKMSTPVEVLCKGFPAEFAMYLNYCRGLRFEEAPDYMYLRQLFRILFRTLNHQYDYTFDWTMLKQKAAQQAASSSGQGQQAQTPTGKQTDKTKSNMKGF
Chain of [CK1α]-[compound]-[CRBN/DDB1] ternary complex (Q96SW2 whole entry): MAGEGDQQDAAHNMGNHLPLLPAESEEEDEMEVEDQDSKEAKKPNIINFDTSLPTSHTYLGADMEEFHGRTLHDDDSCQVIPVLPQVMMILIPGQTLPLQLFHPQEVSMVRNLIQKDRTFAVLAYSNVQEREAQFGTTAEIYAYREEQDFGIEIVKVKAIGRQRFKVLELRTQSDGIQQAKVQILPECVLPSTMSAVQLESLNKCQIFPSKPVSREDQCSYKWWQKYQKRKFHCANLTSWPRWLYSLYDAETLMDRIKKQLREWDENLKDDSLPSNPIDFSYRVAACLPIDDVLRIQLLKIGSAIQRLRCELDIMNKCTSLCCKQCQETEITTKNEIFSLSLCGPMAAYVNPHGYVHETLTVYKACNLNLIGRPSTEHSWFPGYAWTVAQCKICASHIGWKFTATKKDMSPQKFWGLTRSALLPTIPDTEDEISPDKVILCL
Chain of [CK1α]-[compound]-[CRBN/DDB1] ternary complex (Q16531 whole entry partner): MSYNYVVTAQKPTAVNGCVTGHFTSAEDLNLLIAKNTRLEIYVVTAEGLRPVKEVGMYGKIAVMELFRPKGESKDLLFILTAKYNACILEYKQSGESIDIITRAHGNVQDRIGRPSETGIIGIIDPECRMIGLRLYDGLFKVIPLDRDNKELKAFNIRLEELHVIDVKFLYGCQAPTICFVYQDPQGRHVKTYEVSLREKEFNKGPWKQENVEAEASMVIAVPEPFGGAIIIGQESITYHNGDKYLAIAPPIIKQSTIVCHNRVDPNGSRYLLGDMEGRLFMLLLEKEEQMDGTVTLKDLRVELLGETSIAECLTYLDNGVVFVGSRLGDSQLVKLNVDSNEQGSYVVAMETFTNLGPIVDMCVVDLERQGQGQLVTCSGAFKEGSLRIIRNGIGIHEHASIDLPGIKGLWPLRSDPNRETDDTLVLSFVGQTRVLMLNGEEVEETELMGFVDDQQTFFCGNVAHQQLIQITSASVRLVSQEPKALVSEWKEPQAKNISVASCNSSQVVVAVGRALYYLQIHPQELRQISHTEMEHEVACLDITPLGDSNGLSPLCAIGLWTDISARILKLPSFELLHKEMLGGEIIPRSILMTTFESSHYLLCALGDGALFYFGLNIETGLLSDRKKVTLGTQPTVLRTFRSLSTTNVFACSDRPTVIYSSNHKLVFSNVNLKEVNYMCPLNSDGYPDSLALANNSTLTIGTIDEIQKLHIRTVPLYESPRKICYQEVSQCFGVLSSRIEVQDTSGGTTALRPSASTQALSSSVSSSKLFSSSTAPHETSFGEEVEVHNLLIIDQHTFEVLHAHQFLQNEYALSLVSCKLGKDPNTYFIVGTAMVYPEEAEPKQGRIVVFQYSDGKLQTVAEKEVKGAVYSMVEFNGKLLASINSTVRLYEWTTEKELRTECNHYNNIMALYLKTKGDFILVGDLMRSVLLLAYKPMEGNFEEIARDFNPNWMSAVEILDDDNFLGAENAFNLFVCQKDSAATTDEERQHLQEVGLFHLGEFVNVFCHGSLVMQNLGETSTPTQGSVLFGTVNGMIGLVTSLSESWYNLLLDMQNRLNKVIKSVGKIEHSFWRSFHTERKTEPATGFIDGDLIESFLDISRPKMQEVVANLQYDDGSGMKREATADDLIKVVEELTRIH
T1 sequence (P15170 whole entry): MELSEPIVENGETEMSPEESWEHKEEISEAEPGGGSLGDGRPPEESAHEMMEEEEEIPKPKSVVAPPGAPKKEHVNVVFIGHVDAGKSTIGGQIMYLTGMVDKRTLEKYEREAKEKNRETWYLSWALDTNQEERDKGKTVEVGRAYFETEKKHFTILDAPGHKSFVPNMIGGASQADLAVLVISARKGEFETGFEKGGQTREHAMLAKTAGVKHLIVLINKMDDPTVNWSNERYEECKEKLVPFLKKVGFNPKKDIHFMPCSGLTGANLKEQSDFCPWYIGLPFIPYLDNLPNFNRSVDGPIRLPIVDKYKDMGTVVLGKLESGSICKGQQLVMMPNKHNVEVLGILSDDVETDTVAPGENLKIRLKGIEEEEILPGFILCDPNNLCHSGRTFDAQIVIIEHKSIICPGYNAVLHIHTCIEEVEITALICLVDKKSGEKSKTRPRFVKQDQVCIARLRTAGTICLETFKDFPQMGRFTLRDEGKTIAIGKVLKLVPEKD
T1 sequence (Q96SW2 whole entry): as the sequence (Q96SW2 whole entry) above
T1 sequence (Q16531 whole entry partner): as the sequence (Q16531 whole entry partner) above
Chain of [GSPT1]-[compound of formula (I)]-[CRBN/DDB1] complex (P15170 whole entry): as the sequence (P15170 whole entry) above
Chain of [GSPT1]-[compound of formula (I)]-[CRBN/DDB1] complex (Q96SW2 whole entry): as the sequence (Q96SW2 whole entry) above
Chain of [GSPT1]-[compound of formula (I)]-[CRBN/DDB1] complex (Q16531 whole entry partner): as the sequence (Q16531 whole entry partner) above

Dmax [1] [%] | DC50 [1] [µM] | EC50 [2] [µM] | activation at 1 µM [3] [%] | SMILES
≥ 75 | < 0.01 | 0.316 to 3.16 | < 10 | Cc1ncc(NC(=O)OCc2ccc3cc(C4CCC(=O)NC4=O)c(C)nc3c2)cc1Cl (centres unmarked) [Compound 58, (3-(2,6-dioxopiperidin-3-yl)-2-methylquinolin-7-yl)methyl (5-chloro-6-methylpyridin-3-yl)carbamate]
≥ 75 | 0.01 to 0.05 | < 0.316 | < 10 | COc1cnc(NC(=O)OCc2ccc3cc(C4CCC(=O)NC4=O)c(C)nc3c2)cn1 (centres unmarked) [Compound 59, (3-(2,6-dioxopiperidin-3-yl)-2-methylquinolin-7-yl)methyl (5-methoxypyrazin-2-yl)carbamate]
≥ 75 | > 0.1 | < 0.316 | < 10 | Cc1nc2cc(CNC(=O)Nc3cc(C(C)(C)C)no3)ccc2cc1N1CCC(=O)NC1=O [Compound 64, 1-(3-(tert-butyl)isoxazol-5-yl)-3-((3-(2,4-dioxotetrahydropyrimidin-1(2H)-yl)-2-methylquinolin-7-yl)methyl)urea]
≥ 75 | 0.01 to 0.05 | 0.316 to 3.16 | 10 to 25 | Cc1nc2ccc(COC(=O)Nc3cc(C(C)(C)C)no3)cc2cc1N1CCC(=O)NC1=O [Compound 66, (3-(2,4-dioxotetrahydropyrimidin-1(2H)-yl)-2-methylquinolin-6-yl)methyl (3-(tert-butyl)isoxazol-5-yl)carbamate]
≥ 75 | 0.01 to 0.05 | < 0.316 | 10 to 25 | Cc1nc2ccc(CNC(=O)Nc3cc(C(C)(C)C)no3)cc2cc1N1CCC(=O)NC1=O [Compound 67, 1-(3-(tert-butyl)isoxazol-5-yl)-3-((3-(2,4-dioxotetrahydropyrimidin-1(2H)-yl)-2-methylquinolin-6-yl)methyl)urea]
≥ 75 | 0.05 to 0.1 | > 3.16 | < 10 | Cc1nc2cc(COC(=O)Nc3cc(C(F)(F)F)no3)ccc2cc1C1CCC(=O)NC1=O (centres unmarked) [Compound 71, (3-(2,6-dioxopiperidin-3-yl)-2-methylquinolin-7-yl)methyl (3-(trifluoromethyl)isoxazol-5-yl)carbamate]
≥ 75 | 0.01 to 0.05 | 0.316 to 3.16 | < 10 | Cc1nc2cc(COC(=O)Nc3cc(C(C)(C)C)no3)ccc2cc1N1CCC(=O)NC1=O [Compound 72, (3-(2,4-dioxotetrahydropyrimidin-1(2H)-yl)-2-methylquinolin-7-yl)methyl (3-(tert-butyl)isoxazol-5-yl)carbamate]
≥ 75 | > 0.1 | > 3.16 | < 10 | Cc1ccc(NC(=O)OCc2ccc3cc(C4(F)CCC(=O)NC4=O)c(C)nc3c2)cc1Cl (centres unmarked) [Compound 74, (3-(3-fluoro-2,6-dioxopiperidin-3-yl)-2-methylquinolin-7-yl)methyl (3-chloro-4-methylphenyl)carbamate]

SMILES | Dmax [1] [%] | DC50 [1] [µM] | EC50 [2] [µM] | activation at 1 µM [3] [%]
Cc1nc2cc(COC(=O)Nc3cc(C(F)(F)F)n[nH]3)ccc2cc1C1CCC(=O)NC1=O (centres unmarked) [Compound 69, (3-(2,6-dioxopiperidin-3-yl)-2-methylquinolin-7-yl)methyl (3-(trifluoromethyl)-1H-pyrazol-5-yl)carbamate] | ≥ 75 | 0.01 to 0.05 | 0.316 to 3.16 | < 10
Cc1nc2cc(COC(=O)Nc3cc(C(C)(C)C)on3)ccc2cc1C1CCC(=O)NC1=O (centres unmarked) [Compound 70, (3-(2,6-dioxopiperidin-3-yl)-2-methylquinolin-7-yl)methyl (5-(tert-butyl)isoxazol-3-yl)carbamate] | ≥ 75 | < 0.01 | < 0.316 | < 10
Cc1nc2cc(COC(=O)Nc3cc(C(C)(C)C)n[nH]3)ccc2cc1C1CCC(=O)NC1=O (centres unmarked) [Compound 75, (3-(2,6-dioxopiperidin-3-yl)-2-methylquinolin-7-yl)methyl (3-(tert-butyl)-1H-pyrazol-5-yl)carbamate] | ≥ 75 | 0.01 to 0.05 | 0.316 to 3.16 | < 10

— US20260232682A1, “GSPT1 DEGRADER COMPOUNDS” (Captor Therapeutics S.A., priority 2023, published 2026)
